Assay results published in US20230159453A1 (COCRYSTAL PHARMA, INC., priority 2020, published 2023).

Molecular target: SARS2 protease (Severe acute respiratory syndrome coronavirus 2, UniProt P0DTD1)
Assay: SARS-CoV-2 protease inhibition assay (SARS2 FRET protease assay)
Assay type: biochemical
Conditions: SARS-CoV-2 protease 25 nM, FRET, peptide substrate 1.3 μM, 30 minutes at 30° C., compounds 20 μM to 1.0 nM; read-out: IC50

Row | SMILES | IC50
1 | CC(C)C[C@H](NC(=O)OC(Cc1ccccc1)c1ccccc1)C(=O)N[C@H](C=O)C[C@@H]1CCNC1=O (stereo partly drawn) [Compound C38, 1,2-Diphenylethyl ((S)-4-methyl-1-oxo-1-(((S)-1-oxo-3-((S)-2-oxopyrrolidin-3-yl)propan-2-yl)amino)pentan-2-yl)carbamate] | 0.016 µM
2 | CCCOC(=O)N[C@@H](CC1CCCCC1)C(=O)N[C@H](C=O)CCC(=O)N1CCOc2ccccc2C1 [Compound C18, Propyl ((S)-3-cyclohexyl-1-(((S)-5-(2,3-dihydrobenzo[f][1,4]oxazepin-4(5H)-yl)-1,5-dioxopentan-2-yl)amino)-1-oxopropan-2-yl)carbamate] | 49.3 µM
3 | CC(=O)N1CCC2(CC1)CC(CC(C=O)NC(=O)[C@H](CC1CCCCC1)NC(=O)c1cc3cc(Cl)ccc3[nH]1)C(=O)N2 (stereo partly drawn) [Compound C141, N-((2S)-1-((1-(8-acetyl-2-oxo-1,8-diazaspiro[4.5]decan-3-yl)-3-oxopropan-2-yl)amino)-3-cyclohexyl-1-oxopropan-2-yl)-5-chloro-1H-indole-2-carboxamide] | 0.0308 µM
4 | CC(C)C[C@H](NC(=O)OC(c1ccccc1)C1(c2cccc(Cl)c2)CCC1)C(=O)N[C@H](C=O)C[C@@H]1CCNC1=O (stereo partly drawn) [Compound C277] | 0.71 µM
5 | O=C[C@H](CC1CCN(CCc2ccccc2)C1=O)NC(=O)[C@H](CC1CCCCC1)NC(=O)OCc1cccc(Cl)c1 (stereo partly drawn) [Compound C27, 3-Chlorobenzyl ((2S)-3-cyclohexyl-1-oxo-1-((1-oxo-3-(2-oxo-1-phenethylpyrrolidin-3-yl)propan-2-yl)amino)propan-2-yl) carbamate] | > 200 µM
6 | CN(CCc1ccccc1)C(=O)CC[C@@H](C=O)NC(=O)[C@H](CC1CCCCC1)NC(=O)OC1(c2cccc(Cl)c2)CC1 [Compound C10, 1-(3-Chlorophenyl) cyclopropyl ((S)-3-cyclohexyl-1-(((S)-5-(methyl (phenethyl)amino)-1,5-dioxopentan-2-yl)amino)-1-oxopropan-2-yl) carbamate] | > 200 µM
7 | CC(C[C@@H](C=O)NC(=O)[C@H](CC1CCCCC1)NC(=O)OCc1cccc(Cl)c1)C(=O)N1CCOc2ccccc2C1 (stereo partly drawn) [Compound C29, 3-Chlorobenzyl ((2S)-3-cyclohexyl-1-(((2S)-5-(2,3-dihydrobenzo[f][1,4]oxazepin-4(5H)-yl)-4-methyl-1,5-dioxopentan-2-yl)amino)-1-oxopropan-2-yl)carbamate] | > 200 µM
8 | CC(C)(c1cccc(Cl)c1)C(OC(=O)N[C@@H](CC1CCCCC1)C(=O)N[C@H](C=O)C[C@@H]1CCNC1=O)c1ccc(Cl)cc1 (stereo partly drawn) [Compound C143, 2-(3-Chlorophenyl)-1-(4-chlorophenyl)-2-methylpropyl ((S)-3-cyclohexyl-1-oxo-1-(((S)-1-oxo-3-((S)-2-oxopyrrolidin-3-yl)propan-2-yl)amino)propan-2-yl) carbamate] | 0.0036 µM
9 | CC(C)C[C@H](NC(=O)O[C@@H](c1cccc(F)c1)C(C)(C)c1cccc(Cl)c1)C(=O)N[C@@H](C[C@@H]1CCNC1=O)C(=O)C(=O)NC1CC1 [Compound C285] | 0.08 µM
10 | O=C(N[C@@H](CC1CCCCC1)C(=O)NC(CC1CC2(CCOCC2)NC1=O)C(=O)C(=O)NC1CC1)OCc1cccc(Cl)c1 (stereo partly drawn) [Compound C176, 3-Chlorobenzyl ((2S)-3-cyclohexyl-1-((4-(cyclopropylamino)-3,4-dioxo-1-(2-oxo-8-oxa-1-azaspiro[4.5]decan-3-yl)butan-2-yl)amino)-1-oxopropan-2-yl)carbamate] | 1.57 µM
11 | CC(C)C[C@H](NC(=O)OC1(Cc2cccnc2)CC1)C(=O)N[C@H](C=O)C[C@@H]1CCNC1=O [Compound C71, 1-(Pyridin-3-ylmethyl)cyclopropyl ((S)-4-methyl-1-oxo-1-(((S)-1-oxo-3-((S)-2-oxopyrrolidin-3-yl)propan-2-yl)amino)pentan-2-yl)carbamate] | 1.6 µM
12 | COc1cccc2[nH]c(C(=O)N[C@@H](CC3CCCCC3)C(=O)NC(CC3CC4(CCN(C(C)=O)CC4)NC3=O)C(=O)C(N)=O)cc12 (stereo partly drawn) [Compound C117, N-((2S)-1-((1-(8-Acetyl-2-oxo-1,8-diazaspiro[4.5]decan-3-yl)-4-amino-3,4-dioxobutan-2-yl)amino)-3-cyclohexyl-1-oxopropan-2-yl)-4-methoxy-1H-indole-2-carboxamide] | 0.0553 µM
13 | CC(C)(c1cccc(Cl)c1)C(OC(=O)N[C@@H](CC1CCCCC1)C(=O)N[C@@H](C[C@@H]1CCNC1=O)C(=O)C(N)=O)c1ccc2ccccc2c1 (stereo partly drawn) [Compound C122, 2-(3-Chlorophenyl)-2-methyl-1-(naphthalen-2-yl)propyl ((S)-1-(((S)-4-amino-3,4-dioxo-1-((S)-2-oxopyrrolidin-3-yl)butan-2-yl)amino)-3-cyclohexyl-1-oxopropan-2-yl)carbamate] | 0.456 µM
14 | CC(C)CN1C(=O)N[C@@H](C[C@@H]2CCNC2=O)C(O)N1C(=O)OCc1ccccc1 (stereo partly drawn) [Compound C129, Benzyl (5S)-6-hydroxy-2-isobutyl-3-oxo-5-(((S)-2-oxopyrrolidin-3-yl)methyl)-1,2,4-triazinane-1-carboxylate] | > 20 µM
15 | CC(C)C[C@H](NC(=O)OC(Cc1ccccc1)C(C)C)C(=O)N[C@H](C=O)C[C@@H]1CCNC1=O (stereo partly drawn) [Compound C230, 3-Methyl-1-phenylbutan-2-yl ((S)-4-methyl-1-oxo-1-(((S)-1-oxo-3-((S)-2-oxopyrrolidin-3-yl)propan-2-yl)amino)pentan-2-yl)carbamate] | 0.07 µM
16 | CCCOC(=O)N[C@@H](CC1CCCCC1)C(=O)N[C@@H](CCC(=O)N1CCOc2ccccc2C1)C(O)P(=O)(OCC)OCC (stereo partly drawn) [Compound C19, Propyl ((2S)-3-cyclohexyl-1-(((2S)-1-(diethoxyphosphoryl)-5-(2,3-dihydrobenzo[f][1,4]oxazepin-4(5H)-yl)-1-hydroxy-5-oxopentan-2-yl)amino)-1-oxopropan-2-yl)carbamate] | 94.3 µM
17 | O=C(N[C@@H](CC1CCCCC1)C(=O)N[C@@H](C[C@@H]1CCNC1=O)C(=O)C(=O)NC1CC1)OCc1cccc(Cl)c1 [Compound C154, 3-Chlorobenzyl ((S)-3-cyclohexyl-1-(((S)-4-(cyclopropylamino)-3,4-dioxo-1-((S)-2-oxopyrrolidin-3-yl)butan-2-yl)amino)-1-oxopropan-2-yl)carbamate] | 1.48 µM
18 | O=C[C@H](CC1CC2(CCCC2)NC1=O)NC(=O)[C@H](CC1CCCCC1)NC(=O)OC1CCCC1Cc1cccc(Cl)c1 (stereo partly drawn) [Compound C165, 2-(3-chlorobenzyl)cyclopentyl ((2S)-3-cyclohexyl-1-oxo-1-((1-oxo-3-(2-oxo-1-azaspiro[4.4]nonan-3-yl)propan-2-yl)amino)propan-2-yl)carbamate] | 0.106 µM
19 | CC1(C)CC(CC(NC(=O)[C@H](CC2CCCCC2)NC(=O)OC(c2cccc(F)c2)C(C)(C)c2cccc(Cl)c2)C(=O)C(N)=O)C(=O)N1 (stereo partly drawn) [Compound C220, 2-(3-Chlorophenyl)-1-(3-fluorophenyl)-2-methylpropyl ((2S)-1-((4-amino-1-(5,5-dimethyl-2-oxopyrrolidin-3-yl)-3,4-dioxobutan-2-yl)amino)-3-cyclohexyl-1-oxopropan-2-yl)carbamate] | 1.83 µM
20 | CCCCCCOC(=O)N[C@@H](CC1CCCCC1)C(=O)N[C@@H](CCC(=O)N1CCOc2ccccc2C1)C(O)P(=O)(OCC)OCC (stereo partly drawn) [Compound C7, Hexyl ((2S)-3-cyclohexyl-1-(((2S)-1-(diethoxyphosphoryl)-5-(2,3-dihydrobenzo[f][1,4]oxazepin-4(5H)-yl)-1-hydroxy-5-oxopentan-2-yl)amino)-1-oxopropan-2-yl)carbamate] | > 200 µM
21 | CC(=O)N1CCC2(CC1)C[C@H](C[C@H](NC(=O)[C@H](CC1CCCCC1)NC(=O)c1cc3ccccc3[nH]1)C(=O)C(N)=O)C(=O)N2 [Compound C125, N—((S)-1-(((S)-1-((S)-8-acetyl-2-oxo-1,8-diazaspiro[4.5]decan-3-yl)-4-amino-3,4-dioxobutan-2-yl)amino)-3-cyclohexyl-1-oxopropan-2-yl)-1H-indole-2-carboxamide] | 0.0201 µM
22 | CC(C)C[C@H](NC(=O)OC(Cc1cccc(Cl)c1)c1cccc(Cl)c1)C(=O)N[C@H](C=O)C[C@@H]1CCNC1=O (stereo partly drawn) [Compound C282, 1,2-Bis(3-chlorophenyl)ethyl ((S)-4-methyl-1-oxo-1-(((S)-1-oxo-3-((S)-2-oxopyrrolidin-3-yl)propan-2-yl)amino)pentan-2-yl)carbamate] | 0.04 µM
23 | CC(C)C[C@H](NC(=O)OCC1CCC(F)(F)CC1)C(=O)NC(C)(C=O)CC1CCNC1=O (stereo partly drawn) [Compound C107, (4,4-Difluorocyclohexyl) methyl ((2S)-4-methyl-1-((2-methyl-1-oxo-3-(2-oxopyrrolidin-3-yl)propan-2-yl)amino)-1-oxopentan-2-yl) carbamate] | 6.79 µM
24 | CC(C)C[C@H](NC(=O)OC(Cc1cccc(Cl)c1)c1ccccc1)C(=O)N[C@H](C=O)C[C@@H]1CCNC1=O (stereo partly drawn) [Compound C104, 2-(3-Chlorophenyl)-1-phenylethyl ((S)-4-methyl-1-oxo-1-(((S)-1-oxo-3-((S)-2-oxopyrrolidin-3-yl)propan-2-yl)amino)pentan-2-yl) carbamate] | 0.006 µM
25 | CC(C)C[C@H](NC(=O)OCC(C)(C)c1cccc(Cl)c1)C(=O)N[C@@H](C[C@@H]1CCNC1=O)C(=O)C(=O)NC1CC1 [Compound C87, 2-(3-Chlorophenyl)-2-methylpropyl ((S)-1-(((S)-4-(cyclopropylamino)-3,4-dioxo-1-((S)-2-oxopyrrolidin-3-yl)butan-2-yl)amino)-4-methyl-1-oxopentan-2-yl)carbamate] | 0.7 µM
26 | O=C(O)C(=O)C(CC1CC2(CCCCC2)NC1=O)NC(=O)[C@H](CC1CCCCC1)NC(=O)c1cc2ccccc2[nH]1 (stereo partly drawn) [Compound C228, 3-((S)-3-Cyclohexyl-2-(1H-indole-2-carboxamido)propanamido)-2-oxo-4-(2-oxo-1-azaspiro[4.5]decan-3-yl)butanoic acid] | 0.12 µM
27 | CC(C)C[C@H](NC(=O)OC(c1ccccc1)C(F)(F)c1cccc(Cl)c1)C(=O)N[C@@H](C[C@@H]1CCNC1=O)C(=O)C(=O)NC1CC1 (stereo partly drawn) [Compound C258] | 0.09 µM
